This is an account of results in patent US12552811B2, “Immunosuppressant, and preparation method therefor and use thereof” (Abbisko Therapeutics Co., Ltd., priority 2020, dated 2026).

As usually defined, the EC50 is the concentration that produces a half-maximal response. A word on the IC50: it is the concentration at which inhibition is half-maximal. As usually defined, the AUC(0-t) is exposure summed from dosing to a finite time, without extrapolation to infinity. Lower therefore signals less exposure. One may read the Cmax as the maximum level reached in the sampled fluid or tissue. The term MRT denotes a mean duration of stay, worked out from the concentration-time curve. What is called Tmax is the time at which the peak concentration occurs. In general, half-life refers to the time needed for the level to fall by half in the phase considered. A higher half-life goes with slow loss.

Data set [1] can be described thus: Jurkat reporter gene cellular assay. The data set is classed as cell-based. Conditions: Homo sapiens; Jurkat/NF-κB-luc/PD1 + Raji-PD-L1 coculture, OKT3 1 μg/mL, 6 hrs, activation fold; read-out: Cell Activity EC50. The method, then: The effect of compounds of the examples of the present invention and positive compounds on the interaction between PD-1 and PD-L1 expressed on cell surfaces, and the related influence on T cell functions, were determined by a Jurkat reporter gene cellular assay.
Briefly, the reporter gene plasmid of NF-κB-luc and the plasmid of human PD-1 were transfected into Jurkat cells to establish a stably transfected cell line capable of stably expressing both PD-1 and NF-κB-Luc reporter genes; the expression level of PD-1 on the cell surface was confirmed by flow cytometry; and the expression of the reporter gene was confirmed via the response of the reporter gene stimulated by OKT-3 and Raiji cells.
In addition, the plasmid of human PD-L1 was transfected into Raji cells to obtain a cell line capable of stably expressing PD-L1. Jurkat/NF-κB-luc/PD1 cells and Raji-PD-L1 cells were then cocultured and stimulated with OKT-3. On this basis, the compounds were added, and the enhancement of the signal pathway of T cell activation by the inhibitory effect of the compounds on the interaction between PD-1 and PD-L1 was evaluated by readings of reporter gene responses. The specific experimental process was as follows: • 1) 30 μL of compound or antibody solution was added to each well of a white 96-well plate (coming, 3610) at different diluted concentrations, and 10 μL of OKT3 (Biolegend, 317326) was then added (the final concentration of OKT3: 1 μg/mL); • 2) 20 μL of Raji-PD-L1 cell suspension was added to each well with 5*10^4 cells for each well, and was incubated in an incubator for 20 min: • 3) 20 μL of Jurkat/NF-κb-luc/PD-1 cell suspension was added to each well with 5*10^4 cells for each well, and well mixed, and 6 hrs later, Bright-glo (Promega, E2620) was applied and plates were read on Envision; • 4) The reading of each well treated with the compound was compared with the reading of each well treated with DMSO to obtain the activation fold of the compound; • 5) EC50 values of compounds and positive compounds of the examples of the present invention were determined by non-linear regression analysis of activation folds at different compound concentrations.
In general terms: In a reporter assay the amount or activity of a reporter protein is the signal.

Data set [2] concerns the target interaction between PD-1 and PD-L1 (Homo sapiens (Human), UniProt Q9NZQ7). Description: PD1-PDL1 HTRF binding activity test. The conditions noted are these: Cisbio PD-1/PD-L1 binding assay kit. As to the method:
I. PD1-PDL1 HTRF Binding Activity Test
The effect of compounds of the examples of the present invention on the interaction between PD-1 and PD-L1 was determined by the PD-1/PD-L1 binding assay kit from Cisbio (#64ICP01PEG or 64ICP01PEH). The detailed experimental process was as follows: • 1) Pre-diluted compound solution, 4 μL of Tag1-PD-L1 and 4 μL of Tag2-PD1 were added to each well of a 384-well plate: • 2) After the mixture was incubated at room temperature for 15 min, 5 μL of anti-Tag1-Eu3+ antibody and 5 μL of anti-Tag2-XL665 antibody were then added; • 3) After incubated for 2 hrs at room temperature or overnight at 4° C., plates were read on Envision of Pelkin Elmer; and readings at 665 nm and 620 nm were recorded, and the ratio of the two readings was taken as a reading for each well; • 4) The reading of each well after compound treatment was compared with the reading of DMSO treated wells to obtain the percent inhibition of the compound; • 5) IC50 values of compounds and positive compounds of the examples of the present invention were determined by non-linear regression analysis of percent inhibition at different compound concentrations. II. Jurkat Reporter Gene Cellular Assay

Data set [3] in a line: Pharmacokinetic assay in mice. The conditions noted are these: male, mouse; ICR mice, PO 10 mg/kg, plasma. The data set is classed as in vivo. The method, then:
III. Pharmacokinetic Assay in Mice
The purpose of this study was to study the pharmacokinetic behaviors of some compounds of the present invention, and administration routes were: per oral administration (PO) to ICR mice at a dose of 10 mg/kg.
The compounds used in this test came from the compounds of the specific examples of the present invention.
ICR mice, male, N=3, with the original source of Shanghai Sippr-BK Laboratory Animal Co. Ltd.
2.3 Preparation and Administration of Drug
The compounds were weighed, and dissolved in a solvent of 0.5% SDS+0.5% CMCNa. The mixture solutions were mixed well by shaking and ultrasonic treatment to obtain colorless clear solutions. The solutions were orally administered to nine mice after an overnight fast. The dosage of administration was 10 mg/kg.
• 1) With about 90 μL/time point, blood was drawn from the submaxillary vein, and heparin sodium was added for anticoagulation. The blood samples were placed onto the ice, and were centrifuged (centrifugation conditions: 8000 r/min, 6 min, 2-8° C.) within 1 hr to obtain plasmas. • 2) The time points for blood sampling were at 0 hr, 0.25 hr, 0.5 hr, 1 hr, 2 hrs, 4 hrs, 6 hrs, 8 hrs and 24 hrs after administration. The samples were stored in a refrigerator at −20° C. • 3) 40 μL of plasma sample was added to 160 μL of cold acetonitrile containing an internal standard, and the mixture solution was vortexed for 3 min and centrifuged at 11,000 r/min for 5 min. • 4) 100 μL of supernate was taken and added to 100 μL of water, and 5 μL of the sample was taken and analyzed by LC/MS/MS.
The compounds from some representative examples of the present invention were administered and tested according to the above method, and their prototype compounds were detected.

Sequence of interaction between PD-1 and PD-L1 (Q9NZQ7 19-238): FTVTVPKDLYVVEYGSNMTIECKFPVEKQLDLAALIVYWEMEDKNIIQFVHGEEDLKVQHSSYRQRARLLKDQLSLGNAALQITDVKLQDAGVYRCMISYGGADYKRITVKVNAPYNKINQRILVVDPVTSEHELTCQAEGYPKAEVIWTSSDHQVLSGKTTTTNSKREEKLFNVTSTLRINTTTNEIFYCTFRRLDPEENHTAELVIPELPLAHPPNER

Take `CC(C)N1CCc2cc(C(=O)Nc3cccc(-c4cccc(NC(=O)c5nc6c(n5C)CCN(CCC57CCC(C(=O)O)(CC5)C7)C6)c4Cl)c3Cl)ncc2C1` [Example 1, 4-(2-(2-((2,2′-dichloro-3′-(7-isopropyl-5,6,7,8-tetrahydro-2,7-naphthyridine-3-carboxamido)-[1,1′-biphenyl]-3-yl)carbamoyl)-1-methyl-1,4,6,7-tetrahydro-5H-imidazo[4,5-c]pyridin-5-yl)ethyl)bicyclo[2.2.1]heptane-1-carboxylic acid]: the EC50 in data set [1] came to 53.8 nM. The molecule also showed an IC50 in data set [2] of 0.73 nM. In data set [3], the AUC(0-t) was 18400 ng·h/mL, the Cmax worked out at 2850 ng/mL, the MRT stood at 4.9 h and the time of peak concentration (Tmax) is 0.5 h. Also, in data set [3], the half-life is 3.6 h.

On to `CN1CCc2cc(C(=O)Nc3cccc(-c4cccc(NC(=O)c5nc6c(n5C)CCN(CCC57CCC(C(=O)O)(CC5)C7)C6)c4Cl)c3Cl)ncc2C1` [Example 2, 4-(2-(2-((2,2′-dichloro-3′-(7-methyl-5,6,7,8-tetrahydro-2,7-naphthyridine-3-carboxamido)-[1,1′-biphenyl]-3-yl)carbamoyl)-1-methyl-1,4,6,7-tetrahydro-5H-imidazo[4,5-c]pyridin-5-yl)ethyl)bicyclo[2.2.1] heptane-1-carboxylic acid], for which, in data set [1], the concentration giving a half-maximal response (EC50) came to 50 nM. This molecule also gave an IC50 in data set [2] of 0.178 nM. Further, in data set [3], the AUC(0-t) was found to be 1820 ng·h/mL, the Cmax worked out at 2320 ng/mL, the MRT was 1.8 h and the Tmax amounted to 0.083 h. Moreover, the half-life in data set [3] was 4 h.

On to `CCN1CCc2cc(C(=O)Nc3cccc(-c4cccc(NC(=O)c5nc6c(n5C)CCN(CCC57CCC(C(=O)O)(CC5)C7)C6)c4Cl)c3Cl)ncc2C1` [Example 3, 4-(2-(2-((2,2′-dichloro-3′-(7-ethyl-5,6,7,8-tetrahydro-2,7-naphthyridine-3-carboxamido)-[1,1′-biphenyl]-3-yl)carbamoyl)-1-methyl-1,4,6,7-tetrahydro-5H-imidazo[4,5-c]pyridin-5-yl)ethyl)bicyclo[2.2.1] heptane-1-carboxylic acid], for which, in data set [1], the concentration giving a half-maximal response (EC50) is 47.6 nM. This molecule showed an IC50 in data set [2] of 0.174 nM.

On to `Cn1c(C(=O)Nc2cccc(-c3cccc(NC(=O)c4cc5c(cn4)CN(C4COC4)CC5)c3Cl)c2Cl)nc2c1CCN(CCC13CCC(C(=O)O)(CC1)C3)C2` [Example 11, 4-(2-(2-((2,2′-dichloro-3′-(7-(oxetan-3-yl)-5,6,7,8-tetrahydro-2,7-naphthyridine-3-carboxamido)-[1,1′-biphenyl]-3-yl)carbamoyl)-1-methyl-1,4,6,7-tetrahydro-5H-imidazo[4,5-c]pyridin-5-yl)ethyl)bicyclo [2.2.1]heptane-1-carboxylic acid], for which the EC50 in data set [1] is 54.4 nM. Further, the IC50 in data set [2] amounted to 0.109 nM.

With `CC(C)N1CCc2cc(/C(F)=C/c3cccc(-c4cccc(NC(=O)c5nc6c(n5C)CCN(CCC57CCC(C(=O)O)(CC5)C7)C6)c4Cl)c3Cl)ncc2C1` [Example 25, (Z)-4-(2-(2-((2,2′-dichloro-3′-(2-fluoro-2-(7-isopropyl-5,6,7,8-tetrahydro-2,7-naphthyridin-3-yl)vinyl)-[1,1′-biphenyl]-3-yl)carbamoyl)-1-methyl-1,4,6,7-tetrahydro-5H-imidazo[4,5-c]pyridin-5-yl)ethyl) bicyclo[2.2.1]heptane-1-carboxylic acid], the concentration for a half-maximal effect (EC50) in data set [1] came to 86.3 nM. Also, the IC50 in data set [2] is 0.358 nM.

As to `CC(C)N1CCc2cc(C(=O)Nc3cccc(-c4cccc(NC(=O)c5cc(C6CC6)c(CN6CCCC[C@H]6C(=O)O)cn5)c4Cl)c3Cl)ncc2C1` [Example 32, (S)-1-((4-cyclopropyl-6-((2,2′-dichloro-3′-(7-isopropyl-5,6,7,8-tetrahydro-2,7-naphthyridine-3-carboxamido)-[1,1′-biphenyl]-3-yl)carbamoyl)pyridin-3-yl)methyl)piperidine-2-carboxylic acid], the EC50 in data set [1] was 25 nM. Also, in data set [3], the AUC(0-t) turned out to be 10200 ng·h/mL, the Cmax worked out at 2570 ng/mL, the MRT amounted to 2.9 h and the Tmax is 0.5 h. In data set [3], this molecule had a half-life of 1.3 h.

With `CC(C)N1CCc2cc(C(=O)Nc3cccc(-c4cccc(NC(=O)c5nc6c(n5C)CCN(CCC57CCC(C(=O)O)(CC5)CC7)C6)c4Cl)c3Cl)ncc2C1` [Example 58, 4-(2-(2-((2,2′-dichloro-3′-(7-isopropyl-5,6,7,8-tetrahydro-2,7-naphthyridine-3-carboxamido)-[1,1′-biphenyl]-3-yl)carbamoyl)-1-methyl-1,4,6,7-tetrahydro-5H-imidazo[4,5-c]pyridin-5-yl)ethyl)bicyclo [2.2.2]octane-1-carboxylic acid], in data set [1], the EC50 stood at 53.5 nM. Further, in data set [2], the IC50 amounted to 0.73 nM. In data set [3], the AUC(0-t) worked out at 13900 ng·h/mL, the Cmax is 1630 ng/mL, the mean residence time MRT is 5.7 h and the time of peak concentration (Tmax) was 1 h. In addition, in data set [3], the half-life was 3.8 h.

Consider `CC(C)N1CCc2cc(C(=O)Nc3cccc(-c4cccc(NC(=O)c5nc6c(n5C)CCN(CCC57C8C9C5C5C7C8C95C(=O)O)C6)c4Cl)c3Cl)ncc2C1` (centres unmarked) [Example 59, 4-(2-(2-((2,2′-dichloro-3′-(7-isopropyl-5,6,7,8-tetrahydro-2,7-naphthyridine-3-carboxamido)-[1,1′-biphenyl]-3-yl)carbamoyl)-1-methyl-1,4,6,7-tetrahydro-5H-imidazo[4,5-c]pyridin-5-yl)ethyl)cubane-1-carboxylic acid], for which, in data set [1], the EC50 came to 33.8 nM. Further, in data set [2], the IC50 amounted to 0.904 nM. Besides, in data set [3], the AUC(0-t) came out at 2300 ng·h/mL, the Cmax was determined as 616 ng/mL, the MRT came out at 2.4 h and the Tmax worked out at 0.5 h. The molecule also showed a half-life in data set [3] of 1.2 h.

For the molecule `CC(C)N1CCc2cc(C(=O)Nc3cccc(-c4cccc(NC(=O)c5nc6c(n5C)CCN(CCC57CC(C(=O)O)(C5)C7)C6)c4Cl)c3Cl)ncc2C1` [Example 60, 3-(2-(2-((2,2′-dichloro-3′-(7-isopropyl-5,6,7,8-tetrahydro-2,7-naphthyridine-3-carboxamido)-[1,1′-biphenyl]-3-yl)carbamoyl)-1-methyl-1,4,6,7-tetrahydro-5H-imidazo[4,5-c]pyridin-5-yl)ethyl)bicyclo [1.1.1]pentane-1-carboxylic acid], in data set [1], the EC50 came to 29.4 nM. Besides, the IC50 in data set [2] was determined as 0.253 nM. Further, in data set [3], the AUC(0-t) is 4250 ng·h/mL, the Cmax stood at 2420 ng/mL, the MRT was 2 h and the Tmax is 0.5 h. The molecule also showed a half-life in data set [3] of 1.6 h.
